{"source": "patent US11578077B2", "about": "“Spiro-oxazolones” (Hoffmann-La Roche Inc., priority 2013, dated 2023)"}
{"biological_target": "human V1a receptor (Homo sapiens (Human), UniProt P37288)", "sequence (P37288 whole entry)": "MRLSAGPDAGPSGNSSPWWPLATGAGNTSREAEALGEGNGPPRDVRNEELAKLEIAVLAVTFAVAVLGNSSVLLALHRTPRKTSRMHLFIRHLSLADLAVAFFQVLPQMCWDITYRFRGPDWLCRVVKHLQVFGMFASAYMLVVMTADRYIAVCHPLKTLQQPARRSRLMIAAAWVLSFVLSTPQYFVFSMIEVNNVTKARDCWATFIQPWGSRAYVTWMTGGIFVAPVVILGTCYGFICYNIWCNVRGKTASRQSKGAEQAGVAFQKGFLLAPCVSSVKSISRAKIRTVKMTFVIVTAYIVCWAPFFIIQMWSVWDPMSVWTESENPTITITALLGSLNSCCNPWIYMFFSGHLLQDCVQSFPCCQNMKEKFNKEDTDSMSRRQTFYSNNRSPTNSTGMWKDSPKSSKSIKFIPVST", "assay": "human V1a receptor binding studies (3H-Vasopressin, SPA beads)", "conditions": "membranes of HEK293 cells transiently transfected with human V1a receptor, Ki by Cheng-Prusoff", "description": "The human V1a receptor was cloned by RT-PCR from total human liver RNA. The coding sequence was subcloned in an expression vector after sequencing to confirm the identity of the amplified sequence. […] Cell membranes were prepared from HEK293 cells transiently transfected with the expression vector and grown in 20 liter fermenters with the following protocol.\n50 g of cells are re-suspended in 30 ml freshly prepared ice cold Lysis buffer ([…] HEPES. 1 mM EDTA, 10 mM MgCl2 adjusted to pH=7.4+complete cocktail of protease inhibitor (Roche Diagnostics)). Homogenized with Polytron for 1 min and sonicated on ice for 2×2 minutes at 80% intensity (Vibracell sonicator). The preparation is centrifuged 20 min at 500 g at 4° C., the pellet is discarded and the supernatant centrifuged 1 hour at 43'000 g at 4° C. (19'000 rpm). The pellet is re-suspended in 12.5 ml Lysis buffer+12.5 ml Sucrose 20% and homogenized using a Polytron for 1-2 min. The protein concentration is determined by the Bradford method and aliquots are stored at −80° C. until use. For binding studies 60 mg Yttrium silicate SPA beads (Amersham) are mixed with an aliquot of membrane in binding buffer (50 mM Tris, 120 mM NaCl, 5 mM KCl, 2 mM CaCl2, 10 mM MgCl) for 15 minutes with mixing. 50 μl of bead/membrane mixture is then added to each well of a 96 well plate, followed by […] of 4 nM 3H-Vasopressin (American Radiolabeled Chemicals). For total binding measurement 100 μl of binding buffer are added to the respective wells, for non-specific binding 100 μl of […] cold vasopressin and for compound testing 100 μl of a serial dilution of each compound in 2% DMSO. The plate is incubated 1 h at room temperature, centrifuged 1 min at 1000 g and counted on a Packard Top-Count. Non-specific binding counts are subtracted from each well and data is normalized to the maximum specific binding set at 100%. To calculate an IC 50 the curve is fitted using a non-linear regression model (XLfit) and the Ki is calculated using the Cheng-Prussoff equation."}
{"compound": "O=C1OC2(CCN(C3=NC(=O)C4(Cc5ccc(O)cc5C4)O3)CC2)c2ccccc21", "note": "(stereo not drawn) [Example 28, 1′-(5-hydroxy-4′-oxo-1,3-dihydro-4′H-spiro[indene-2,5′-[1,3]oxazol]-2′-yl)-3H-spiro[2-benzofuran-1,4′-piperidin]-3-one]", "pKi hV1a": 8.4}
{"compound": "C[Si](C)(C)c1ccc2c(c1)CC1(C2)OC(N2CCC3(CC2)OCc2ccccc23)=NC1=O", "note": "(stereo not drawn) [Example 29, 2′-(1′H,3H-spiro[2-benzofuran-1,4′-piperidin]-1′-yl)-5-(trimethylsilyl)-1,3-dihydro-4′H-spiro[indene-2,5′-[1,3]oxazol]-4′-one]", "pKi hV1a": 6.2}
{"compound": "O=C1N=C(N2CCC3(CC2)OCc2ccccc23)OC12Cc1ccc(F)cc1C2", "note": "(stereo not drawn) [Example 30, 5-fluoro-2′-(1′H,3H-spiro[2-benzofuran-1,4′-piperidin]-1′-yl)-1,3-dihydro-4′H-spiro[indene-2,5′-[1,3]oxazol]-4′-one]", "pKi hV1a": 9.0}
{"compound": "COc1cc2c(cc1OC)CC1(C2)OC(N2CCC3(CC2)OC(=O)c2ccccc23)=NC1=O", "note": "[Example 32, 1′-(5,6-dimethoxy-4′-oxo-1,3-dihydro-4′H-spiro[indene-2,5′-[1,3]oxazol)-2′-yl)-3H-spiro[2-benzofuran-1,4′-piperidin]-3-one]", "pKi hV1a": 6.4}
{"compound": "O=C1OC2(CCN(C3=NC(=O)C4(Cc5cc(O)c(O)cc5C4)O3)CC2)c2ccccc21", "note": "[Example 33, 1′-(5,6-dihydroxy-4′-oxo-1,3-dihydro-4′H-spiro[indene-2,5′-[1,3]oxazol]-2′-yl)-3H-spiro[2-benzofuran-1,4′-piperidin]-3-one]", "pKi hV1a": 6.7}
{"compound": "O=C1N=C(N2CCC3(CC2)OCc2ccccc23)OC12Cc1cc(F)c(F)cc1C2", "note": "[Example 34, 5,6-difluoro-2′-(1′H,3H-spiro[2-benzofuran-1,4′-piperidin]-1′-yl)-1,3-dihydro-4′H-spiro[indene-2,5′-[1,3]oxazol]-4′-one]", "pKi hV1a": 9.4}
{"compound": "O=C1OC2(CCN(C3=NC(=O)C4(Cc5cc(F)c(F)cc5C4)O3)CC2)c2ccccc21", "note": "[Example 35, 1′-(5,6-difluoro-4′-oxo-1,3-dihydro-4′H-spiro[indene-2,5′-[1,3]oxazol]-2′-yl)-3H-spiro[2-benzofuran-1,4′-piperidin]-3-one]", "pKi hV1a": 8.9}
{"compound": "O=C1N=C(N2CCC3(CC2)OCc2cccnc23)OC12Cc1ccccc1C2", "note": "[Example 36, 2′-(1′H,5H-spiro[furo[3,4-b]pyridine-7,4′-piperidin]-1′-yl)-1,3-dihydro-4′H-spiro[indene-2,5′-[1,3]oxazol]-4′-one]", "pKi hV1a": 8.6}
{"compound": "O=C1N=C(N2CCC3(CC2)OCc2ncccc23)OC12Cc1ccccc1C2", "note": "[Example 37, 2′-(1′H,7H-spiro[furo[3,4-b]pyridine-5,4′-piperidin]-1′-yl)-1,3-dihydro-4′H-spiro[indene-2,5′-[1,3]oxazol]-4′-one]", "pKi hV1a": 8.0}
{"compound": "CC1(C)OC2(CCN(C3=NC(=O)C4(Cc5ccccc5C4)O3)CC2)c2ncccc21", "note": "[Example 38, 2′-(5,5-dimethyl-1′H,5H-spiro[furo[3,4-b]pyridine-7,4′-piperidin]-1′-yl)-1,3-dihydro-4′H-spiro[indene-2,5′-[1,3]oxazol]-4′-one]", "pKi hV1a": 9.2}
{"compound": "CC1(C)OC2(CCN(C3=NC(=O)C4(Cc5ccccc5C4)O3)CC2)c2cccnc21", "note": "[Example 39, 2′-(7,7-dimethyl-1′H,7H-spiro[furo[3,4-b]pyridine-5,4′-piperidin]-1′-yl)-1,3-dihydro-4′H-spiro[indene-2,5′-[1,3]oxazol]-4′-one]", "pKi hV1a": 9.1}
{"compound": "COc1ccc2c(c1)CC1(C2)OC(N2CCC3(CC2)OC(C)(C)c2ncccc23)=NC1=O", "note": "(stereo not drawn) [Example 40, 2′-(7,7-dimethyl-1′H,7H-spiro[furo[3,4-b]pyridine-5,4′-piperidin]-1′-yl)-5-methoxy-1,3-dihydro-4′H-spiro[indene-2,5′-[1,3]oxazol]-4′-one]", "pKi hV1a": 8.3}
